According to patent US20100215632A1, “BIOMARKERS OF SIRTUIN ACTIVITY AND METHODS OF USE THEREOF” (Sirtris Pharmaceuticals, Inc., priority 2007, published 2010):

Assays:
[1] = tested on: FGF21; test: FGF21 expression in liver of diet-induced obesity mice (microarray); assay type: in vivo, mouse; conditions: 3 day liver, oral once per day; resveratrol 1000 mg/kg, Compound 1 100 mg/kg
Protocol: (§1) As with Example 2, the diet-induced obesity (D10) model was used. 51 C57BL/6 mice are started on a 60% kcal high fat diet. Mice are weighed once a week for approximately 7 weeks on the high fat diet until the average body weight of the D10 mice is 40 grams. The study is divided into 3 groups of […] mice per group with mean average body weight/cage. Animals are dosed orally once per day as follows: Resveratrol at 1000 mg/kg in 2% HPMC/0.2% DOSS, Compound 1 at 100 mg/kg in 2% HPMC/0.2% DOSS and vehicle control animals 2% HPMC/0.2% DOSS. Concentration of compound is adjusted to proper dose according to the mean weight for each group weekly. Mice are typically dosed in the a.m. and are only dosed in the p.m. on days following a 16 hour fast. On day 3 of dosing, liver tissue is collected from the mice 1 hour post dose.
The liver is isolated as in Example 2. Total RNA from the liver sample is extracted with standard techniques (e.g. PureLink Micro-to-Midi Total RNA Purification System, Invitrogen cat. #12183-018).
Expression of multiple genes was determine by microarray as in Example 4.

[2] = tested on: liver; test: Overall pattern of change in gene expression in 3 day liver of diet-induced obesity mice (gene chip); assay type: in vivo, mouse; conditions: 1000 mg/kg oral once per day
Excerpt: A mouse model of diet induced obesity was used to identify sirtuin biomarkers in mice following dosing with two chemically unrelated sirtuin activators. Obesity and type II diabetes are being intensively studied in animal models, particularly the mouse. One such model is commonly referred to as the diet-induced obesity (DIO) model. Typically, C57BL/6 males are fed a high fat diet for 8 to 12 weeks and, as a result, become obese, mildly to moderately hyperglycemic, and glucose intolerant. These mice are then used to study the genetic and physiological mechanisms of obesity and type II diabetes.
as §1, with “51” for “As with Example 2, the diet-induced obesity (D10) model was used. 51”, “DIO” for “D10”, “Each group is split up into 3 sub-groups for a 3, 16 and 42” for “On”, “collection time point.” for “3 of dosing, liver tissue is collected from the mice 1 hour post dose.”
Once dosing starts data collections are as follow. Day 3: collect tissues, blood and glucose from 6 mice from each group 1 hour post dose. Also take fed glucose from remaining groups. Day 13: Intraperitoneal glucose tolerance test (IPGTT). Day 16: collect tissues, blood and glucose from 6 mice from each group 1 hour post dose. Also take fed glucose from remaining groups. Day 28: Fasted glucose. […]
Total RNA isolated from either Example 2 above (mouse tissues following in vivo treatment with either Compound 1 or resveratrol) or Example 3 above (human WBC following ex vivo treatment with either Compound 2 or resveratrol) was analyzed using an Affymetrix GeneChip specific to either the mouse or human genome. […]

Row | Structure (SMILES) | FGF21 mRNA levels versus control mice [1] | activity of PGC1a and PPAR family members [2] | activity of hepatic transcription factors involved in glucose homeostasis and the stress response pathway [2] | inflammatory signaling (pattern of gene expression) [2]
1 | O=C(Nc1ccccc1-c1cn2c(CN3CCNCC3)csc2n1)c1cnc2ccccc2n1 [Compound 1] | markedly higher |  |  | 
2 | Oc1ccc(C=Cc2cc(O)cc(O)c2)cc1 [resveratrol, 3,5,4′-trihydroxystilbene] | markedly higher | increased activity of PGC1a and PPAR family members | increased activity of hepatic transcription factors | decreased inflammatory signaling
